Results as given in ChEMBL document CHEMBL5365403, “Synthesis of proposed structure of ledebourin A” (Bioorg Med Chem Lett, 2023).
Active and inactive are the calls of the source. No cut-off for these calls is given here.

Columns and labels:
HepG2 [1] = test: Cytotoxicity against human HepG2 cells assessed as reduction cell viability at 10 uM after 24 hrs by MTT assay; type: toxicity, cell-based; conditions: hepg2, 24 h
HepG2 [2] = test: Hepatoprotective activity against GA-induced human HepG2 cells assessed as cell viability at 10 uM pre-incubated for 2 hrs followed by GA addition and measured after 22 hrs by MTT assay (Rvb=37% ); type: functional; conditions: time 24 hrs, read-out: Activity
HepG2 [3] = test: Hepatoprotective activity against GA-induced human HepG2 cells assessed as reduction in Bax protein expression at 5 to 10 uM; type: functional, cell-based; conditions: dose 5-10 µM

| Compound | Activity (HepG2 [1]) | viability at 10 µM (HepG2 [2]) [%] | Activity (HepG2 [3]) |
| --- | --- | --- | --- |
| COc1ccc(C[C@H]2COc3cc4c(c(O)c3C2=O)C=CC(C)(C)O4)cc1 | Non-Toxic | 47 | Active |
| COc1ccc(C[C@H]2COc3c4c(cc(O)c3C2=O)OC(C)(C)C=C4)cc1 | Non-Toxic | 51 | Active |
